Consider 15 compounds from ChEMBL document CHEMBL1201862, “PubChem BioAssay data set” (2004).

Among the test systems are OVCAR-5; OVCAR-8; TK-10; MOLT-4; A498; RXF 393; SNB-19; SF-295; SF-268; ACHN; HCC 2998; OVCAR-4; NCI-H522; UACC-257; A549.
What all share (assay): NCI-60 cell line screen, 48 h

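Compound exposure: 48 hours, 5 concentrations, 96-well plates. Abbreviation: GI50, concentration required for 50% inhibition of growth.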 Activity calls are given as the source filed them. Cut-off read from the data, not from the text of the source: active = GI50 up to about 1.1 µM and inactive = higher. Some results are limits rather than exact numbers.

`COc1cc(Cl)cc(O)c(=O)c1OC`: the GI50 in the assay with OVCAR-5 is > 92.5 µM (inactive); in the assay with OVCAR-8, 36.9 µM (inactive); in the assay with TK-10 it was 44.1 µM (inactive); with MOLT-4 it was 15.8 µM (inactive); in the assay on A498, 57.1 µM (inactive); in the assay with RXF 393 it was 26.9 µM (inactive). In addition, the GI50 in the assay with SNB-19 is 56.1 µM (inactive); with SF-295 it was 62.4 µM (inactive); with SF-268 it was 25.3 µM (inactive); in the assay on ACHN it was 37.2 µM (inactive); with HCC 2998, 63.4 µM (inactive); in the assay on OVCAR-4, 25.7 µM (inactive). Further, the GI50 in the assay on NCI-H522 is 21.9 µM (inactive); with UACC-257 it was 48.8 µM (inactive).

With `N#CCCN(CCC#N)c1ccc(/C=C2\N=C(CN3C(=O)c4ccccc4C3=O)OC2=O)cc1`, the GI50 in the assay on OVCAR-5, in the assay on OVCAR-8, in the assay on A549, in the assay on MOLT-4, with A498 and with SNB-19 was > 100 µM (inactive) in each case. For the same compound, the GI50 in the assay on SF-295 is > 100 µM (inactive); in the assay with SF-268, > 100 µM (inactive); in the assay with ACHN, > 100 µM (inactive); in the assay on HCC 2998 it was > 100 µM (inactive); in the assay with OVCAR-4, > 100 µM (inactive); in the assay with NCI-H522 it was 89.7 µM (inactive). Further, the GI50 with UACC-257 was > 100 µM (inactive).

In the case of `COC(=O)C1CC(c2ccc(Cl)cc2)=NO1` (stereo not drawn), the GI50 in the assay with OVCAR-5, in the assay with OVCAR-8, with TK-10, in the assay with A549, in the assay on MOLT-4 and in the assay on A498 was > 100 µM (inactive) throughout. Further, the GI50 in the assay with SF-295, in the assay on SF-268, with ACHN, in the assay on HCC 2998, in the assay with OVCAR-4 and in the assay with NCI-H522 was > 100 µM (inactive) in each case. Further, the GI50 in the assay with UACC-257 was > 100 µM (inactive).

Regarding `Cc1ccc(NCC(=O)N2CC(=O)Nc3ccccc32)cc1`, the GI50 in the assay on OVCAR-5, in the assay on OVCAR-8, with TK-10, with A549, in the assay with MOLT-4 and in the assay on RXF 393 was > 100 µM (inactive) each time. Further, the GI50 with SNB-19, in the assay with SF-295, in the assay with SF-268, in the assay with ACHN, in the assay on HCC 2998 and in the assay with OVCAR-4 was > 100 µM (inactive) each time. The GI50 in the assay on NCI-H522 and in the assay with UACC-257 was > 100 µM (inactive) each time.

In the case of `CN(C)CCNC(=O)c1ccc(C(=O)NCCN(C)C)c2nc3ccccc3cc12`, the GI50 in the assay on OVCAR-5 was 1.22 µM (inactive); in the assay with OVCAR-8, 0.571 µM (active); in the assay on TK-10 it was 0.94 µM (active); in the assay on A549 it was 0.45 µM (active); in the assay on MOLT-4 it was 0.226 µM (active); in the assay with A498 it was 1.15 µM (inactive). In addition, the GI50 is 0.762 µM (active) with RXF 393; 1.2 µM (inactive) in the assay on SNB-19; 0.895 µM (active) with SF-295; 0.962 µM (active) in the assay on SF-268; 0.637 µM (active) in the assay with ACHN; 0.9 µM (active) in the assay with HCC 2998. The GI50 in the assay with OVCAR-4 was 0.697 µM (active); in the assay on NCI-H522, 0.47 µM (active); in the assay on UACC-257, 1.62 µM (inactive).

For the compound `NCCCCCS(=O)(=O)O`, the GI50 in the assay with OVCAR-5, with OVCAR-8, in the assay on TK-10, in the assay on A549, in the assay on MOLT-4 and with A498 was > 100 µM (inactive) throughout. The GI50 in the assay with RXF 393, in the assay on SNB-19, in the assay with SF-268, in the assay with ACHN, in the assay on HCC 2998 and in the assay with OVCAR-4 was > 100 µM (inactive) in each case. Besides, the GI50 in the assay with NCI-H522 and in the assay with UACC-257 was > 100 µM (inactive) each time.

In the case of `COc1ccc(/C=C/c2onc3c(=O)n(C)nc(-c4ccccc4)c23)cc1`, the GI50 in the assay with OVCAR-8, with TK-10, with A549, with MOLT-4, in the assay with RXF 393 and in the assay with SNB-19 was > 100 µM (inactive) in each case. Besides, the GI50 in the assay on SF-268 was > 100 µM (inactive); in the assay with ACHN, > 100 µM (inactive); in the assay with NCI-H522, 77.6 µM (inactive).

Take `O=C1c2ccccc2C2(O)Nc3cc(O)ccc3C12O` (stereo not drawn): the GI50 with OVCAR-5, in the assay on OVCAR-8, with TK-10, with A549, with MOLT-4 and in the assay on A498 was > 100 µM (inactive) in each case. In addition, the GI50 in the assay on RXF 393, in the assay on SNB-19, in the assay on SF-295, with SF-268, in the assay on ACHN and in the assay on OVCAR-4 was > 100 µM (inactive) throughout. For the same compound, in the assay with NCI-H522, the GI50 was > 100 µM (inactive).

Consider `Cc1ccc(C2CC(c3ccco3)=NN2c2ccccc2)o1` (stereo not drawn), for which the GI50 in the assay with OVCAR-5, in the assay on OVCAR-8, in the assay on TK-10, in the assay on A549, in the assay on MOLT-4 and in the assay with RXF 393 was > 100 µM (inactive) throughout. Moreover, the GI50 in the assay on SNB-19, in the assay with SF-295, in the assay with SF-268, in the assay with ACHN, in the assay on OVCAR-4 and in the assay on NCI-H522 was > 100 µM (inactive) throughout.

Take `COCc1c(CO)cnc(C)c1OC1OC(CO)C(O)C(O)C1O` (stereo not drawn): the GI50 in the assay with OVCAR-5, with OVCAR-8, in the assay with A549, in the assay on MOLT-4, in the assay with A498 and in the assay on RXF 393 was > 100 µM (inactive) each time. In addition, the GI50 in the assay with SNB-19, with SF-295, in the assay with SF-268, in the assay on ACHN, in the assay with HCC 2998 and in the assay with OVCAR-4 was > 100 µM (inactive) in each case. Further, the GI50 in the assay with NCI-H522 and in the assay on UACC-257 was > 100 µM (inactive) throughout.

On to `Cn1c2ccccc2c(=O)c2c([N+](=O)[O-])ccc(NCCN)c21`, for which the GI50 with OVCAR-5 is 13.8 µM (inactive); in the assay on OVCAR-8, 7.19 µM (inactive); with TK-10, 14.7 µM (inactive); in the assay with A549, 11.9 µM (inactive); in the assay with MOLT-4, 2.06 µM (inactive); with A498 it was 16.5 µM (inactive). Also, the GI50 is 9.62 µM (inactive) with RXF 393; 14.1 µM (inactive) in the assay with SNB-19; 12.5 µM (inactive) in the assay on SF-295; 11.3 µM (inactive) in the assay on SF-268; 6.3 µM (inactive) with ACHN; 7.98 µM (inactive) in the assay with HCC 2998. Also, the values for the GI50 with OVCAR-4, in the assay with NCI-H522 and in the assay with UACC-257 were 12.2 µM (inactive), 6.92 µM (inactive) and 13.6 µM (inactive), respectively.

Take `CC(=O)OCc1cc(OC(C)=O)cnc1COC(C)=O`: the GI50 in the assay with OVCAR-5, in the assay with OVCAR-8, in the assay on TK-10, in the assay with A549, in the assay with MOLT-4 and with A498 was > 100 µM (inactive) throughout. Besides, the GI50 in the assay with RXF 393, in the assay on SNB-19, in the assay on SF-295, in the assay with SF-268, with ACHN and in the assay on OVCAR-4 was > 100 µM (inactive) each time. For the same compound, the GI50 with NCI-H522 and in the assay with UACC-257 was > 100 µM (inactive) throughout.

For `C/C(CN1C(=O)c2ccccc2C1=O)=N\NS(=O)(=O)c1ccc2ccccc2c1`, the GI50 in the assay on OVCAR-5, in the assay on OVCAR-8, in the assay with TK-10, with A549, in the assay on MOLT-4 and in the assay on A498 was > 100 µM (inactive) in each case. The GI50 in the assay on SNB-19 was > 100 µM (inactive); in the assay with SF-295, > 100 µM (inactive); with SF-268, 88.5 µM (inactive); in the assay on ACHN it was > 100 µM (inactive); with HCC 2998 it was > 100 µM (inactive); with OVCAR-4, > 100 µM (inactive). In addition, the GI50 in the assay with NCI-H522 is 57.7 µM (inactive); in the assay on UACC-257 it was > 100 µM (inactive).

As to `COC1=CC(=O)C2C(C1=O)C(c1ccc(OC)c(OC)c1)[C@H]2C` (stereo partly drawn), the GI50 was > 100 µM (inactive) with OVCAR-5; 20.6 µM (inactive) in the assay with OVCAR-8; 19 µM (inactive) in the assay on TK-10; > 100 µM (inactive) in the assay on A549; 7.71 µM (inactive) with MOLT-4; > 100 µM (inactive) in the assay on A498. The GI50 in the assay with RXF 393 was 19.7 µM (inactive); with SNB-19, > 100 µM (inactive); in the assay with SF-295 it was > 100 µM (inactive); with SF-268, > 100 µM (inactive); in the assay with ACHN, 18.7 µM (inactive); in the assay with HCC 2998 it was > 100 µM (inactive). For the same compound, the GI50 was 16.6 µM (inactive) in the assay on OVCAR-4, 12.8 µM (inactive) in the assay with NCI-H522 and 18.6 µM (inactive) in the assay on UACC-257.

For the compound `CCCCCCCCCCCC[N+]12CC[N+](CCN)(CC1)CC2`, the GI50 with OVCAR-5 was 17.2 µM (inactive); in the assay on OVCAR-8, > 100 µM (inactive); in the assay with TK-10 it was 17.1 µM (inactive); in the assay on A549 it was > 100 µM (inactive); in the assay on MOLT-4 it was > 100 µM (inactive); with RXF 393, 5.62 µM (inactive). Besides, the GI50 was 20.8 µM (inactive) in the assay with SNB-19; 51.8 µM (inactive) in the assay with SF-295; 37.2 µM (inactive) in the assay on SF-268; > 100 µM (inactive) with ACHN; 35 µM (inactive) with HCC 2998; > 100 µM (inactive) in the assay on OVCAR-4. Besides, the figures for the GI50 with NCI-H522 and with UACC-257 were 86.5 µM (inactive) and > 100 µM (inactive), respectively.
